In patent US7018840B2, “Fluorescent metal sensors, and methods of making and using the same” (Massachusetts Institute of Technology, priority 2001, dated 2006):

Assays:
[1] = known from the literature; cited from earlier work
[2] = Affinity of subject ligand for Zn2+; format: binding
Source text: Fluorescence Zn^2+ Binding Titration (Kd1). The first Kd associated with Zn^2+ binding will be measured by a fluorescence titration as described previously. Spectra of the subject ligand will be acquired by exciting at 490 nm or other suitable wavelength and collecting and integrating from 500–575 nm or other appropriate window. The measurements will be performed in triplicate to ensure accuracy of the Kd value.

| SMILES | affinity and specificity for Zn^2+ over Mg^2+ and Ca^2+ [1] | affinity for Zn^2+ [2] |
| --- | --- | --- |
| c1ccc(CN(CCN(Cc2ccccn2)Cc2ccccn2)Cc2ccccn2)nc1 [TPEN] | very high affinity and specificity | – |
| O=C(O)c1ccccc1-c1c2cc(Cl)c(=O)cc-2oc2cc(N(Cc3ccccn3)Cc3ccccn3)ccc12 [compound 30, 9-(o-Carboxyphenyl)-2-chloro-6-[bis(2-pyridylmethyl)amino]-3-xanthanone] | – | weak |
